The data set has as its system intracellular carboxylesterases (U937 cell extract). The data set is described as follows: Broken cell carboxylesterase assay, U937 cell extract. It is filed as in vitro ADME. Conditions: ester 2.5 μM, 37° C. The protocol:
Any given compound of the present invention wherein R1 is an ester group may be tested to determine whether it meets the requirement that it be hydrolysed by intracellular esterases, by testing in the following assay.
U937 or Hut78 tumour cells (˜10^9) were washed in 4 volumes of Dulbeccos PBS (˜1 liter) and pelleted at 525 g for 10 min at 4° C. This was repeated twice and the final cell pellet was resuspended in 35 mL of cold homogenising buffer (Trizma 10 mM, NaCl 130 mM, CaCl2 0.5 mM pH 7.0 at 25° C.). Homogenates were prepared by nitrogen cavitation (700 psi for 50 min at 4° C.). The homogenate was kept on ice and supplemented with a cocktail of inhibitors at final concentrations of: • Leupeptin 1 μM • Aprotinin 0.1 μM • E64 8 μM • Pepstatin 1.5 μM • Bestatin 162 μM • Chymostatin 33 μM After clarification of the cell homogenate by centrifugation at 525 g for 10 min, the resulting supernatant was used as a source of esterase activity and was stored at −80° C. until required. Measurement of Ester Cleavage
Hydrolysis of esters to the corresponding carboxylic acids can be measured using the cell extract, prepared as above. To this effect cell extract (˜30 μg/total assay volume of 0.5 ml) was incubated at 37° C. in a Tris-HCl 25 mM, 125 mM NaCl buffer, pH 7.5 at 25° C. At zero time the ester (substrate) was then added at a final concentration of 2.5 μM and the samples were incubated at 37° C. for the appropriate time (usually 0 or 80 min). Reactions were stopped by the addition of 3× volumes of acetonitrile. For zero time samples the acetonitrile was added prior to the ester compound. After centrifugation at 12000 g for 5 min, samples were analysed for the ester and its corresponding carboxylic acid at room temperature by LCMS (Sciex API 3000, HP1100 binary pump, CTC PAL). Chromatography was based on an AceCN (75×2.1 mm) column and a mobile phase of 5-95% acetonitrile in water/0.1% formic acid.
Rates of hydrolysis are expressed in pg/mL/min.

Data on nine molecules can be found in US9273003B2, “Methods of treating lymphoma and rheumatoid arthritis with cyclopentyl (2S)-cyclohexyl[({6-[3-(hydroxyamino)-3-oxopropyl]pyridin-3-yl}methyl)amino]acetate” (GlaxoSmithKline Intellectual Property Development Limited, priority 2006, dated 2016).

With `COc1cc2c(Oc3ccc(NC(=O)c4ccccc4)cc3)ccnc2cc1C`, the “Hydrolysis Rate Range U937 Cells” value is 100 to 1000 pg/mL/min.

As for `Cc1ccc2cc(C(=O)NO)sc2c1` [drawing 84], the “Hydrolysis Rate Range U937 Cells” value was 1000 to 50000 pg/mL/min.

As for `Cc1ccc2cc(C(=O)NO)sc2c1` [drawing 87], the “Hydrolysis Rate Range U937 Cells” value is given as above 50000 pg/mL/min.

As for `Cc1ccc(NCc2cnc3nc(N)nc(N)c3c2C)cc1` [drawing 90], the “Hydrolysis Rate Range U937 Cells” value is above 50000 pg/mL/min.

In the case of `Cc1ccc(NCc2cnc3nc(N)nc(N)c3c2C)cc1` [drawing 92], the “Hydrolysis Rate Range U937 Cells” value was in the range of 1000 to 50000 pg/mL/min.

Turning to `Cc1ccc(NCc2cnc3nc(N)nc(N)c3c2C)cc1` [drawing 94], the “Hydrolysis Rate Range U937 Cells” value was 1000 to 50000 pg/mL/min.

Consider `Cc1ccc(NCc2cnc3nc(N)nc(N)c3c2C)cc1` [drawing 96], for which the “Hydrolysis Rate Range U937 Cells” value is reported as above 50000 pg/mL/min.

Consider `Cc1ccc2cc(C(=O)NO)sc2c1` [drawing 98], for which the “Hydrolysis Rate Range U937 Cells” value is above 50000 pg/mL/min.

As for `Cc1ccc2cc(C(=O)NO)sc2c1` [drawing 101], the “Hydrolysis Rate Range U937 Cells” value was above 50000 pg/mL/min.
